The values below come from patent US20230099031A1, “BIFUNCTIONAL AGENTS FOR PROTEIN RECRUITMENT AND/OR DEGRADATION” (Orionis Biosciences, Inc., priority 2019, published 2023).

pEC50, pIC50: −log10 of the molar value. Read-outs that look alike come from different tables or passages of the source. Bounds are passed on as bounds.

Holding throughout (assay type): cell-based
In assay [1] the target is T1, CRBN (Homo sapiens, UniProt Q96SW2).
T1 construct: expressed in transfected cells; host or cells: HEK293T
In words: Competition Assay: MAPPIT-like, competition with trimethoprim-lenalidomide hybrid ligand for binding to CRBN in HEK293T cells.

The target in assay [2] is T2, ASS1 (Homo sapiens, UniProt P00966+Q96SW2).
T2 construct: Full size proteins are fused for each of the target proteins tested; expressed in transfected cells; host or cells: HEK293T
In words: Recruitment Assay (MAPPIT-like): ASS1 recruitment, pSEL-CRBN+pMG1-ASS1. To be noted: recruitment of ASS1, protocol of Example 2; read-out: EC50_ASS1. The gist of the method: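 Cells co-transfected with CRBN- and substrate-fusion constructs (pSEL-CRBN+pMG1-ASS1; pSEL-SALL4+pMG1-CRBN; pSEL-CRBN+pMG1-IKZF1 isoform 7), then treated 24 h post-transfection with Epo ± compound dose series. Luciferase read after 24 h as fold induction over Epo alone (triplicates); 4-parameter nonlinear fit.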

Assay [3] addresses T3, IKZF1 (Homo sapiens, UniProt Q13422+Q96SW2).
T3 construct: expressed in transfected cells; host or cells: HEK293T
Description: Recruitment Assay (MAPPIT-like): IKZF1 recruitment, pSEL-CRBN+pMG1-IKZF1(isoform 7). The following applies: recruitment of IKZF1, protocol of Example 2; read-out: EC50_IKZF1. Here is the method:
In this experimental set-up, cells are transfected with a construct encoding a CRBN-fusion protein and another one encoding a substrate-fusion protein. Test compound activity is assessed with increasing concentrations of test compounds (dose-response studies) to monitor the ability to promote CRBN-ligand-induced protein interaction.
Full size proteins are fused for each of the target proteins tested, except in the case of IKZF1 where isoform 7 is used, and BRD4, where isoform 3 is applied. For the study, the following construct combinations are used: IKZF1 recruitment: pSEL-CRBN+pMG1-IKZF1(isoform 7); ASS1 recruitment: pSEL-CRBN+pMG1-ASS1; SALL4 recruitment: pSEL-SALL4+pMG1-CRBN; DHFR recruitment: pCLG-DHFR+pMG1-CRBN; ESR1 recruitment: pSEL-CRBN+pMG1-ESR1; BRD4 recruitment: pSEL-CRBN+pMG1-BRD4(isoform 3). Cells are treated with erythropoietin (Epo; where pSEL-type receptor fusions constructs are used) or leptin (in the case pCLG-type receptor fusion constructs are applied) without or with the indicated dose of test compound at 24 hours after transfection. Luciferase activity is measured 24 hours after test compound treatment using the Luciferase Assay System kit (PROMEGA, Madison, Wis.) with an Ensight plate reader (PERKIN ELMER LIFE SCIENCES, Waltham, Mass.). Data points depict fold induction of the average luciferase activity of triplicate samples from Epo or leptin+test compound treated cells versus Epo or leptin only treated cells. Error bars represent standard deviations. Curves are fit using 4-parameter nonlinear regression in […] PRISM software.

Assay [4] has as its system IKZF1, ASS1 and SALL4. Description: Recruitment assessment: recruitment of any tested substrate from among IKZF1, ASS1 and SALL4 (MAPPIT-like recruitment assays). The following applies: any tested substrate among IKZF1, ASS1, SALL4 at any tested concentration.
The target in assay [5] is T4, ESR1 (Homo sapiens, UniProt P03372+Q96SW2).
T4 construct: Full size proteins are fused for each of the target proteins tested; expressed in transfected cells; host or cells: HEK293T
In words: Recruitment Assay (MAPPIT-like): ESR1 recruitment, pSEL-CRBN+pMG1-ESR1. To be noted: HEK293T cells, luciferase 24 hours after compound treatment; read-out: Recruitment EC50 (M), target protein ESR1. Here is the method: In this Example 2, a similar MAPPIT-like assay is applied as described in Example 1 to determine test compound-induced binding of a particular substrate protein of interest to CRBN. In this experimental set-up, cells are transfected with a construct encoding a CRBN-fusion protein and another one encoding a substrate-fusion protein. Test compound activity is assessed with increasing concentrations of test compounds (dose-response studies) to monitor the ability to promote CRBN-ligand-induced protein interaction.
Specifically, HEK293T cells are transfected with a plasmid encoding the MAPPIT receptor fusion wherein the protein of interest (CRBN or substrate protein) is genetically linked to a cytoplasmic domain of the leptin receptor, which itself is fused to the extracellular domain of the erythropoietin (Epo) receptor (pSEL-X, where X represents either CRBN or any of the tested substrate proteins of interest) or to the extracellular domain of the leptin receptor (pCLG-X, where X represents either CRBN or any of the tested substrate proteins of interest), a plasmid encoding the MAPPIT gp130 fusion (pMG1-Y, Y being either any of the tested substrate proteins or CRBN) and a STAT3-responsive luciferase-encoding reporter plasmid (pXP2d2-rPAPI-luciferase reporter plasmid), as described (Lievens, et al. “Array MAPPIT: high-throughput interactome analysis in mammalian cells.” Journal of Proteome Research 8.2 (2009): 877-886). Full size proteins are fused for each of the target proteins tested, except in the case of IKZF1 where isoform 7 is used, and BRD4, where isoform 3 is applied. […] Luciferase activity is measured 24 hours after test compound treatment using the Luciferase Assay System kit (PROMEGA, Madison, Wis.) with an Ensight plate reader (PERKIN ELMER LIFE SCIENCES, Waltham, Mass.). […]

[6] abbreviates: protocol and reagents of Example 1, read-out: IC50 Competition.
Where [7] appears, read: HEK293T cells, 300 nM trimethoprim-lenalidomide hybrid ligand, luciferase 24 hours after compound treatment, read-out: Competition IC50.

Turning to `Cc1ccc(NC(=O)NCc2ccc3c(c2)CN(C2CCC(=O)NC2=O)C3=O)cc1Cl` (stereo not drawn) [CC-885, 1-(3-chloro-4-methyl-phenyl)-3-[[2-(2,6-dioxo-3-piperidyl)-1-oxo-isoindolin-5-yl]methyl]urea, reference compound], the pIC50 (usually −log10 of the IC50, conventionally taken in molar units) in assay [1] (setting [6]) was 9.33. Besides, the pEC50 in assay [2] was 7.10; in assay [3], more than 7.86. The “Recruitment Assessment” value in assay [4] is “TRUE”.

On to `CC/C(=C(\c1ccccc1)c1ccc(OCCN(C)CC(=O)NCCOCCOCCOCCOCCNC(=O)COc2cccc3c2CN(C2CCC(=O)NC2=O)C3=O)cc1)c1ccccc1` (stereo not drawn) [Compound 5.53], for which, in assay [1] (setting [7]), the pIC50 is 5.86. Moreover, the EC50 (commonly the concentration that produces a half-maximal response) in assay [5] amounted to 7.35e-07 M.

As for `CC/C(=C(\c1ccccc1)c1ccc(OCCN(C)CC(=O)NCCOCCOCCNC(=O)COc2cccc3c2CN(C2CCC(=O)NC2=O)C3=O)cc1)c1ccccc1` (stereo not drawn) [Compound 5.54], the negative logarithm of the IC50 (pIC50) in assay [1] (setting [7]) was 6.08. For the same molecule, in assay [5], the EC50 was 1.35e-07 M.

In the case of `CC/C(=C(\c1ccccc1)c1ccc(OCCN(C)CC(=O)NCCOCCOCCOCCNC(=O)COc2cccc3c2CN(C2CCC(=O)NC2=O)C3=O)cc1)c1ccccc1` (stereo not drawn) [Compound 5.55], the pIC50 in assay [1] (setting [7]) is 5.98. In assay [5], the concentration giving a half-maximal response (EC50) was determined as 4.42e-07 M.

`O=C1CCC(N2Cc3ccc(NC(=O)c4cnc5[nH]cnc5c4)cc3C2=O)C(=O)N1` (stereo not drawn) [Compound C80394, N-[2-(2,6-dioxo-3-piperidyl)-3-oxo-isoindolin-5-yl]-3H-imidazo[4,5-b]pyridine-6-carboxamide]: in assay [1] (setting [6]), the pIC50 is 5.10. The “Recruitment Assessment” value in assay [4] is listed as “TRUE”.
